Experimental data published in patent publication US7847132B2, “Hepatic fibrosis inhibitor” (Nippon Hypox Laboratories Incorporated, priority 2008, dated 2010).
Marks after values point to notes of the source that are not given here.

Key:
[1] = test system: rat model with carbon tetrachloride-induced liver cirrhosis; test: Rat model with carbon tetrachloride-induced liver cirrhosis, Experimental Example 1 (compound 1 0.3 mg/mL in potable water); type: in vivo
Procedure: (§1) To six-week-old Wister male rats, 3 mL/kg of olive oil containing 40% of carbon tetrachloride or olive oil only were subcutaneously administered twice per week for eight weeks. On a parallel with the administration of the carbon tetrachloride, potable water in which 2,3,5-trimethyl hydroquinone-1-hexylether (compound 1) of the hydroquinone derivative identified by the aforementioned general chemical formula (1) is dissolved at a concentration of 0.3 mg/mL was given to one group of rats daily. Simultaneously, to another groups of rats, only water was given.
(§2) There were adopted four animal groups, i.e. olive oil administration group, olive oil-plus-compound 1 administration group, carbon tetrachloride administration group, and carbon tetrachloride-plus-compound 1 administration group, in the experimental example. Each group consists of ten animals. The animals were slaughtered eight weeks after start of administration of the carbon tetrachloride to carry out an examination. The examination items include ELISA measurement of the serum antibody valency of Naofen and RT-PCR measurement of the mRNA-expression level of Naofen in the liver.

[2] = test system: rat model with carbon tetrachloride-induced liver cirrhosis; test: Rat model with carbon tetrachloride-induced liver cirrhosis, Experimental Example 2 (compound 1 0.1 mg/mL in potable water); type: in vivo; settings: for HA / ALB / ALT / AST / T-Bil: blood; for HA / ALB / ALT / AST / T-Bil / Body weight / Hepatic relative weight / Pancreatic relative weight / Number of animals with ascites retention: n = 10
Procedure: as §1, §2
An experimental examination was carried out with a rat model with carbon tetrachloride-induced liver cirrhosis in the same manner as the aforementioned experimental Example 1 except for use of the compound 1 with a concentration of 0.1 mg/mL. The examination includes measurements of some hepatic damage indexes such as blood AST, ALT, albumin (ALB) and total bilirubin (T-Bil), measurement of hyaluronan (HA) concentration serving as a maker of hepatic fibrosis, autopsy finding, measurements of body weight and organ weight, measurements of expression levels of TGF-β1 mRNA and type-I collagen mRNA in biologic cells by RT-PCR, and a histopathologic inspection.
The examination results of measurements of the liver weight, spleen weight, and number of animals with ascites retention are shown in Table 3. FIGS. 4 and 5 are photographs of hepatic tissues taken by using a Masson staining method and an immunohistochemical staining method (A: olive oil administration case, B: carbon tetrachloride administration case, C: olive oil-plus-compound 1 administration case, and D: carbon tetrachloride-plus-compound 1 administration case; and horizontal line on the bottom right: 100 μm).

[3] = HX (+) group, 0.3 mg/mL in potable water, 8 weeks, total 7 animals
[4] = CCl4 + Compound 1 0.1 mg/mL in potable water, 8 weeks, mean ± SD
[5] = CCl4 + compound 1 0.1 mg/mL, result in words
[6] = Olive Oil + Compound 1 0.1 mg/mL in potable water, 8 weeks, mean ± SD
[7] = Olive Oil + Compound 1 0.1 mg/mL in potable water, 8 weeks

Question: For CCCCCCOc1cc(C)c(O)c(C)c1C [Compound 1, 2,3,5-trimethyl hydroquinone-1-hexylether], which “increase in mRNA-expression level of Naofen in the liver (RT-PCR)” value ([1]; CCl4 + compound 1 0.3 mg/mL in potable water, weeks 6(+), weeks 8(+), FIG. 1) is on record?
Answer: The value was “suppressed”.

Question: What about the “number of animals with serum antibody valency of Naofen 4 < V < 16 (ELISA)” value [1, 3] of the same compound?
Answer: Its value is 1.

Question: And the “number of animals with serum antibody valency of Naofen V <= 4 (ELISA)” value [1, 3]?
Answer: The value was 4.

Question: And the “number of animals with serum antibody valency of Naofen V >= 16 (ELISA)” value [1, 3]?
Answer: Its value is 2.

Question: What about the “abnormality in olive oil-plus-compound 1 administration group” value ([1]; olive oil + compound 1 0.3 mg/mL in potable water, 8 weeks) of the same compound?
Answer: Its value is “no appreciable abnormality”.

Question: And the “antibody valency increase more than 16 times, compound 1 group (+) versus group (−), Fischer direct probability” value ([1]; serum antibody valency of Naofen, 0.3 mg/mL in potable water)?
Answer: The value was “significantly fewer”.

Question: What about the HA ([2]; CCl4 + Compound 1 0.1 mg/mL in potable water, 8 weeks, marker of hepatic fibrosis, mean ± SD) of the same compound?
Answer: The HA was 237.7 ± 36.6*^+ ng/mL.

Question: And the ALB [2, 4]?
Answer: The ALB was 3.8 ± 0.2*^+ g/dL.

Question: And the ALT [2, 4]?
Answer: The ALT was 422.4 ± 60.5**^++ IU/L.

Question: And the AST [2, 4]?
Answer: The AST was 603.6 ± 126.3**^++ IU/L.

Question: And the T-Bil [2, 4]?
Answer: The T-Bil was 0.03 ± 0.02^+ mg/dL.

Question: What about the Body weight [2, 4] of the same compound?
Answer: Its Body weight is 240.8 ± 8.7 g.

Question: And the Hepatic relative weight [2, 4]?
Answer: The Hepatic relative weight was 16.1 ± 1.8^+ g (per 100 grams of body weight).

Question: What about the Pancreatic relative weight [2, 4] of the same compound?
Answer: Its Pancreatic relative weight is 0.28 ± 0.01^+ g (per 100 grams of body weight).

Question: And the “Number of animals with ascites retention” value ([2]; CCl4 + Compound 1 0.1 mg/mL in potable water, 8 weeks)?
Answer: Its value is 1.

Question: What about the “increase in TGF-β1 mRNA-expression level in the liver (RT-PCR)” value ([2]; CCl4 + compound 1 0.1 mg/mL, FIG. 2) of the same compound?
Answer: Its value is “suppressing increase”.

Question: What about the “increase in type-I collagen mRNA-expression level in the liver (RT-PCR)” value ([2]; CCl4 + compound 1 0.1 mg/mL, FIG. 3) of the same compound?
Answer: The value was “suppressing increase”.

Question: What about the “accumulation of fibrous tissue (histopathologic inspection, Masson staining)” value ([2]; CCl4 + compound 1 0.1 mg/mL, hepatic tissue, FIG. 4) of the same compound?
Answer: Its value is “suppressed”.

Question: What about the “expression of TGF-β1 (histopathologic inspection, immunohistochemical staining)” value ([2]; CCl4 + compound 1 0.1 mg/mL, hepatic tissue, FIG. 5) of the same compound?
Answer: Its value is “suppressed”.

Question: What about the “increase in ALT due to administration of carbon tetrachloride” value [2, 5] of the same compound?
Answer: The value was “suppressing increase”.

Question: What about the “increase in AST due to administration of carbon tetrachloride” value [2, 5] of the same compound?
Answer: Its value is “suppressing increase”.

Question: What about the “increase in hyaluronan concentration due to administration of carbon tetrachloride” value [2, 5] of the same compound?
Answer: The value was “suppressing increase”.

Question: And the ALB [2, 6]?
Answer: Its ALB is 4.3 ± 0.1 g/dL.

Question: And the ALT [2, 6]?
Answer: The ALT was 93.7 ± 34.1 IU/L.

Question: And the AST [2, 6]?
Answer: Its AST is 192.7 ± 93.4 IU/L.

Question: What about the HA [2, 6] of the same compound?
Answer: Its HA is 136.7 ± 16.6 ng/mL.

Question: And the T-Bil [2, 7]?
Answer: Its T-Bil is 0 mg/dL.

Question: What about the Body weight [2, 6] of the same compound?
Answer: Its Body weight is 361.5 ± 1.5 g.

Question: What about the Hepatic relative weight [2, 6] of the same compound?
Answer: Its Hepatic relative weight is 14.8 ± 1.5 g (per 100 grams of body weight).

Question: What about the Pancreatic relative weight [2, 6] of the same compound?
Answer: Its Pancreatic relative weight is 0.20 ± 0.01 g (per 100 grams of body weight).

Question: What about the “Number of animals with ascites retention” value [2, 7] of the same compound?
Answer: Its value is 0.

Question: What about the “abnormality in olive oil-plus-compound 1 administration group” value ([2]; olive oil + compound 1 0.1 mg/mL in potable water, 8 weeks) of the same compound?
Answer: Its value is “no appreciable abnormality”.
